Laboratory results published in paper PMC8957246, “Synthesis and diverse biological activity profile of triethylammonium isatin-3-hydrazones” (ADMET & DMPK, 2022).
Read-outs that look alike come from different tables or passages of the source.

Experiments:
Assay type in all cases: cell-based
[1] = tested on: Fusarium oxysporum IBPPM 543; assay: Fungicidal activity, radial growth inhibition, F. oxysporum; conditions: for EC50: Fusarium oxysporum, IBPPM543, 168 h, day 7, EC50 = 50C/I, read-out: EC50, μg/mL at day 7
Description: (§1) Plant pathogenic bacterial strains Micrococcus luteus B-109, Pectobacterium atrosepticum 1043, Pectobacterium carotovorum subsp. carotovorum MI, Pseudomonas fluorescens EL-2.1, and Xanthomonas campestris B-610 and fungal strain Fusarium oxysporum IBPPM 543 were obtained from the specialized scientific culture collection of IBPPM RAS (WFCC no. 975, WDCM no. 1021) (CM IBPPM). Pathogenic fungus Phytophthora cactorum VKM F-985 provided by the All-Russian Collection of Microorganisms (VKM) and deposited at A.E. Favorsky Irkutsk Institute of Chemistry, SB RAS, was also used as test organism. Bacteria M. luteus, P. carotovorum subsp. carotovorum, P. atrosepticum, and Ps. fluorescens were grown in meat-peptone medium (BP), and X. campestris was grown in the medium with glucose, yeast extract, and calcium carbonate (GYCa). Solid media contained Bacto agar (18 g/L); pH was adjusted to 7.2-7.4. All bacterial cultures were grown at 28°C. The mycelial cultures of F. oxysporum and P. cactorum were grown on a glucose-peptone-yeast (GPY) nutrient medium at 27 °C. For inoculum preparation, both fungal strains were initially grown on the agar GPY in Petri dishes and then transferred into the seed medium by punching out 5 mm of the agar plate culture with a self-designed cutter.
For the fungicidal activity analysis, radial growth (colony diameters) of the fungi on a solid medium in the absence and in the presence of the compounds 3a,c-g solutions at various concentrations were compared. The method consisted of the following: sterile, melted and then cooled to about 60°C GPY agar medium (20.0 ml) was mixed with the precisely measured volumes of the solutions under question, and poured into a sterile Petri dish (90 mm i.d.). After solidification of GPY agar, the media were inoculated by the fungus using 10-day-old cultures of F. oxysporum or P. cactorum. The inoculation was done by transferring a 5-mm (i.d.) GPY-agar block covered with mycelium to the center of the Petri dish followed by incubation in a thermostat at 27°C. The fungicidal effect was scored by the size of mycelium colony on a Petri dish compared to the control without fungicidal admixtures to GPY agar. Each treatment was performed in at least four replicates in two independent experiments. The observation period ended when the control Petri dish was filled with mycelium (usually after 12 days). The inhibition of the phytopathogen colony growth by the compounds 3a,c-g or fludioxonil solutions was calculated as a percentage by which the mycelium radial propagation was decreased compared to the unaffected control, the latter was taken as 100 % of growth (or zero percent of inhibition). The EC50 value was calculated as the compound concentration at which the radial growth of the fungus colony was decreased by 50 % relative to the non-fungicidal control, according to the formula EC50 = 50C/I based on the approach developed e.g., in [34, 35].
(§2) The solutions of tested compounds were prepared with a concentration of 2 mmol/l (stock solution). For comparison, test compounds were also commonly applied disinfecting agents and antibiotics.

[2] = tested on: platelets (collagen-induced aggregation); assay: Platelet aggregation (Born method), collagen-induced; conditions: Homo sapiens, collagen 5 mg/mL, final concentration 2×10^–3 mol/L, median (25-75 percentiles), read-out: Platelets aggregation, % of control, Collagen
[3] = tested on: platelets (ADP-induced aggregation); assay: Platelet aggregation (Born method), ADP-induced; conditions: Homo sapiens, ADP 20 μg/mL, final concentration 2×10^–3 mol/L, median (25-75 percentiles), read-out: Platelets aggregation, % of control, ADP
[4] = tested on: Pectobacterium atrosepticum 1043; assay: Bactericidal activity, agar diffusion, P. atrosepticum; conditions: Pectobacterium atrosepticum, 1043, 2 mM/L
Description: as §1
Antibacterial and antifungal activities of the compounds were explored using the agar diffusion method and the technique of a phytopathogen radial growth inhibition. Method of diffusion in agar (measuring the diameter of growth inhibition zones) was used for determining the bactericidal activity. The 6-mm wells were made in ager medium (GYCa for Xanthomonas campestris or BP for other bacteria). Bacterial suspensions were distributed over the agar surface, and the tested compound's solution (150 μl) was added to each well. The width of growth inhibition zones around the wells was determined after incubation for 36-40 h.
as §2

[5] = 150 μl per well, 36-40 h, read-out: width of the inhibition zone
[6] = read-out: Inhibition zone width (mm), not less

SMILES: CC[N+](CC)(CC)CC(=O)N/N=C1\C(=O)N(Cc2cc(C(C)(C)C)c(O)c(C(C)(C)C)c2)c2cccc(Br)c21 [Compound 3e, 2-(2-(1-(3,5-Di-tert-butyl-4-hydroxybenzyl)-4-bromo-2-oxoindolin-3-ylidene)hydrazinyl)-N,N,N-triethyl-2-oxoethanammonium bromide]
- Inhibition value, I (%) ([1]; C 6.81 μg/mL, age of the fungus 3 days): 11%
- Inhibition value, I (%) ([1]; C 6.81 μg/mL, age of the fungus 5 days): 13%
- Inhibition value, I (%) ([1]; C 6.81 μg/mL, age of the fungus 7 days): 19%
- Inhibition value, I (%) ([1]; C 6.81 μg/mL, age of the fungus 9 days): 6%
- Inhibition value, I (%) ([1]; C 13.62 μg/mL, age of the fungus 3 days): 14%
- Inhibition value, I (%) ([1]; C 13.62 μg/mL, age of the fungus 5 days): 18%
- Inhibition value, I (%) ([1]; C 13.62 μg/mL, age of the fungus 7 days): 22%
- Inhibition value, I (%) ([1]; C 13.62 μg/mL, age of the fungus 9 days): 9%
- Inhibition value, I (%) ([1]; C 27.24 μg/mL, age of the fungus 3 days): 19%
- Inhibition value, I (%) ([1]; C 27.24 μg/mL, age of the fungus 5 days): 19%
- Inhibition value, I (%) ([1]; C 27.24 μg/mL, age of the fungus 7 days): 25%
- Inhibition value, I (%) ([1]; C 27.24 μg/mL, age of the fungus 9 days): 20%
- Inhibition value, I (%) ([1]; C 40.86 μg/mL, age of the fungus 3 days): 40%
- Inhibition value, I (%) ([1]; C 40.86 μg/mL, age of the fungus 5 days): 37%
- Inhibition value, I (%) ([1]; C 40.86 μg/mL, age of the fungus 7 days): 43%
- Inhibition value, I (%) ([1]; C 40.86 μg/mL, age of the fungus 9 days): 29%
- EC50 [1]: 17.9 µg/mL
- inhibition at 2000 µM [2]: 2.4%
- inhibition at 2000 µM [3]: 0.5%
- zone of inhibition at 2000 µM [4, 5]: 15 mm
- zone of inhibition at 2000 µM [4, 6]: ≥ 15 mm

SMILES: CC[N+](CC)(CC)CC(=O)N/N=C1\C(=O)N(Cc2cc(C(C)(C)C)c(O)c(C(C)(C)C)c2)c2ccc([N+](=O)[O-])cc21 [Compound 3f, 2-(2-(1-(3,5-Di-tert-butyl-4-hydroxybenzyl)-5-nitro-2-oxoindolin-3-ylidene)hydrazinyl)-N,N,N-triethyl-2-oxoethanammonium bromide]
- Inhibition value, I (%) ([1]; C 6.47 μg/mL, age of the fungus 3 days): 13%
- Inhibition value, I (%) ([1]; C 6.47 μg/mL, age of the fungus 5 days): 11%
- Inhibition value, I (%) ([1]; C 6.47 μg/mL, age of the fungus 7 days): 10%
- Inhibition value, I (%) ([1]; C 6.47 μg/mL, age of the fungus 9 days): 9%
- Inhibition value, I (%) ([1]; C 12.94 μg/mL, age of the fungus 3 days): 26%
- Inhibition value, I (%) ([1]; C 12.94 μg/mL, age of the fungus 5 days): 23%
- Inhibition value, I (%) ([1]; C 12.94 μg/mL, age of the fungus 7 days): 21%
- Inhibition value, I (%) ([1]; C 12.94 μg/mL, age of the fungus 9 days): 10%
- Inhibition value, I (%) ([1]; C 25.88 μg/mL, age of the fungus 3 days): 28%
- Inhibition value, I (%) ([1]; C 25.88 μg/mL, age of the fungus 5 days): 27%
- Inhibition value, I (%) ([1]; C 25.88 μg/mL, age of the fungus 7 days): 32%
- Inhibition value, I (%) ([1]; C 25.88 μg/mL, age of the fungus 9 days): 12%
- Inhibition value, I (%) ([1]; C 38.82 μg/mL, age of the fungus 3 days): 29%
- Inhibition value, I (%) ([1]; C 38.82 μg/mL, age of the fungus 5 days): 28%
- Inhibition value, I (%) ([1]; C 38.82 μg/mL, age of the fungus 7 days): 34%
- Inhibition value, I (%) ([1]; C 38.82 μg/mL, age of the fungus 9 days): 18%
- EC50 [1]: 30.8 µg/mL
- inhibition at 2000 µM [2]: 4.3%
- inhibition at 2000 µM [3]: 4.6%
- zone of inhibition at 2000 µM [4, 5]: 10 mm
- zone of inhibition at 2000 µM [4, 6]: ≥ 10 mm

SMILES: CC[N+](CC)(CC)CC(=O)N/N=C1\C(=O)N(Cc2cc(C(C)(C)C)c(O)c(C(C)(C)C)c2)c2c(Br)cc(Cl)cc21 [Compound 3g, 2-(2-(1-(3,5-Di-tert-butyl-4-hydroxybenzyl)-5-chloro-7-bromo-2-oxoindolin-3-ylidene)hydrazinyl)-N,N,N-triethyl-2-oxoethanammonium bromide]
- Inhibition value, I (%) ([1]; C 7.15 μg/mL, age of the fungus 3 days): 0%
- Inhibition value, I (%) ([1]; C 7.15 μg/mL, age of the fungus 5 days): 4%
- Inhibition value, I (%) ([1]; C 7.15 μg/mL, age of the fungus 7 days): 5%
- Inhibition value, I (%) ([1]; C 7.15 μg/mL, age of the fungus 9 days): 4%
- Inhibition value, I (%) ([1]; C 14.30 μg/mL, age of the fungus 3 days): 9%
- Inhibition value, I (%) ([1]; C 14.30 μg/mL, age of the fungus 5 days): 4%
- Inhibition value, I (%) ([1]; C 14.30 μg/mL, age of the fungus 7 days): 11%
- Inhibition value, I (%) ([1]; C 14.30 μg/mL, age of the fungus 9 days): 5%
- Inhibition value, I (%) ([1]; C 28.60 μg/mL, age of the fungus 3 days): 11%
- Inhibition value, I (%) ([1]; C 28.60 μg/mL, age of the fungus 5 days): 7%
- Inhibition value, I (%) ([1]; C 28.60 μg/mL, age of the fungus 7 days): 26%
- Inhibition value, I (%) ([1]; C 28.60 μg/mL, age of the fungus 9 days): 10%
- Inhibition value, I (%) ([1]; C 42.90 μg/mL, age of the fungus 3 days): 31%
- Inhibition value, I (%) ([1]; C 42.90 μg/mL, age of the fungus 5 days): 27%
- Inhibition value, I (%) ([1]; C 42.90 μg/mL, age of the fungus 7 days): 32%
- Inhibition value, I (%) ([1]; C 42.90 μg/mL, age of the fungus 9 days): 13%
- EC50 [1]: 55 µg/mL
- inhibition at 2000 µM [2]: 8.9%
- inhibition at 2000 µM [3]: 10.2%
- zone of inhibition at 2000 µM [4, 5]: 9 mm
- zone of inhibition at 2000 µM [4, 6]: ≥ 9 mm
